Usually half-life stands for the time needed for the level to fall by half in the phase considered.

Structures can show the parent of a compound that is named as a salt.

Experimental findings from US6861555B2, “Calcium dicarboxylate ethers, methods of making same, and treatment of vascular disease and diabetes therewith” (Warner-Lambert Company, priority 2000, dated 2005) are described below.

Series [1] is described as follows: Bulk density (loose and tapped) of CI-1027 lots. Particulars: for Bulk Density Loose / Bulk Density Tapped: per lot.
The nature of series [2]: Observed electrostatic charge retention of bulk product. The settings on record: compared with amorphous product / salts dried without humidification. It counts as physicochemical. The source says: Additional analysis on the post-humidification dried dialkylcarboxylic acid ether monocalcium salt (II) is indicative of the formation of a salt which is associated with between about 0.1 and about 1 molar equivalent of water per equivalent of dialkylcarboxylic acid ether calcium salt (II), as shorn in FIGS. 1 and 15, for example.

Series [3] can be described thus: Salt form and hygroscopic status: comparison of salts of 72953. It is filed as physicochemical. Particulars: after complete drying. The source says: Following the general procedure of Example 1, 72953 was reacted with sodium hydroxide, potassium hydroxide, and acetylcholine in stoichiometric ratios of 1:1 per dialkanoic acid molecule, and 2:1 per dialkanoic acid molecule. The properties of the solids thus prepared, following complete drying, were compared to the calcium salt (CI-1027) from Example 1.

Another series concerns rat hepatocytes. The series is described as follows: In vitro metabolism in rat hepatocytes using radiolabeled compound. It is filed as in vitro ADME.
Series [4] is described as follows: Pharmacokinetics of CI-1027 in rat. It counts as in vivo.
Another series has as its system monkey hepatocytes. The series is described as follows: In vitro metabolism in monkey hepatocytes using radiolabeled compound. It counts as in vitro ADME.
A further series concerns plasma proteins. The series is described as follows: In vitro binding to plasma proteins. It counts as in vitro ADME.
The nature of series [5]: Mean recovery of 14C dose in excreta, intact and bile-fistula cannulated rats. It is filed as in vivo, rat. The settings on record: 10 mg/kg.
Series [6] in a line: Mean recovery of 14C dose in excreta, intact and bile-fistula cannulated monkeys. It counts as in vivo, monkey. Particulars: 10 mg/kg.
For series [7] the following is noted: in vivo. The protocol: Metabolite profiling is performed by HPLC with radiometric detection and metabolites arc identified by LC/RAM/MS/MS.
Series [8] can be described thus: Pharmacokinetics of CI-1027, species not stated. It counts as in vivo.
Series [9] in a line: Pharmacokinetics of CI-1027 in dog. It counts as in vivo.
The nature of series [10]: Pharmacokinetics of CI-1027 in monkey. It counts as in vivo.
Series [11] relates to Lp(a) and other lipoprotein parameters. The series is described as follows: Effects on Lp(a) and other lipoprotein parameters, oral gavage, transgenic mouse study. It is filed as in vivo, Lp(a) transgenic mice. The arrangement: maximum decrease in total plasma cholesterol: dose or concentration left out as unconfirmed. Here is the method:
(§1) The effects of CI-1027 of Formula II, Crystalline Form 1, on Lp(a) and other lipoprotein parameters in two models of elevated Lp(a) were determined by the following in vivo assays
(§2) Cynomolgus macaque monkeys and Lp(a) transgenic mice are dosed with CI-1027 at 3, 10, 30, 100, or 300 mg/kg for 2 weeks by oral gavage. […] In the transgenic mouse study, female mice were allocated into five groups with equivalent Lp(a) levels, and dosed by oral gavage with either vehicle alone or vehicle plus CI-1027 (3, 10, 30, and 100 mg/kg/day). Blood is sampled weekly (2 weeks prior to treatment, 2 weeks on treatment).

The test system is the same in series [12]. The series is described as follows: Effects on Lp(a) and other lipoprotein parameters, oral gavage for 2 weeks, monkeys. It counts as in vivo, Cynomolgus macaque monkeys. The protocol:
as §1, §2

The test system of another series is dog hepatocytes. The series is described as follows: In vitro metabolism in dog hepatocytes using radiolabeled compound. It is filed as in vitro ADME.
Setting [13] is: in vivo, other: intravenous (IV) and per orals (PO), intravenous (IV) and per orals (PO), read-out: apparent elimination half-life.

Regarding `CC(C)(CCCCOCCCCC(C)(C)C(=O)[O-])C(=O)[O-].[Ca+2]` [CD-3103], in [1], the “Bulk Density Loose” value stood at 0.343 g/mL and the “Bulk Density Tapped” value is 0.484 g/mL.
For the compound `CC(C)(CCCCOCCCCC(C)(C)C(=O)[O-])C(=O)[O-].[Ca+2]` [CD-3243], in series [1], the “Bulk Density Loose” value is 0.235 g/mL and the “Bulk Density Tapped” value turned out to be 0.300 g/mL.
Taken in the same sequence, the figures for `CC(C)(CCCCOCCCCC(C)(C)C(=O)[O-])C(=O)[O-].[Ca+2]` [CD-3135] were 0.242 g/mL and 0.379 g/mL.
For the compound `CC(C)(CCCCOCCCCC(C)(C)C(=O)O)C(=O)O` [Example 12, 6-(5-carboxy-5-methyl-hexyloxy)-2,2-dimethylhexanoic acid monocalcium salt. Crystalline Form 2], the “electrostatic character of bulk product” value in series [2] (listed as Crystal Form 2, monocalcium salt) is given as “less capable of retaining an electrostatic charge”.
Turning to “6-(5-carboxy-5-methyl-hexyloxy)-2,2-dimethylhexanoic acid monocalcium salt hydrate, Crystalline Form 1 [Example 1]”, in series [1] (highly crystalline salt after humidification process), the “bulk density following tapping, average” value is “about 0.4 g/mL”.
`CC(C)(CCCCOCCCCC(C)(C)C(=O)[O-])C(=O)[O-].[Ca+2]` [CD-3082]: in [1], the “Bulk Density Loose” value amounted to 0.234 g/mL and the “Bulk Density Tapped” value is 0.337 g/mL.
For the compound `CC(C)(CCCCOCCCCC(C)(C)C(=O)[O-])C(=O)[O-].[Ca+2]` [listing 1 of 2 here], in [1], the “Bulk Density Loose” value was determined as 0.336 g/mL and the “Bulk Density Tapped” value was found to be 0.439 g/mL.
In the case of `CC(C)(CCCCOCCCCC(C)(C)C(=O)O)C(=O)O` [Example 1, 6-(5-carboxy-5-methyl-hexyloxy)-2,2-dimethylhexanoic acid monocalcium salt hydrate, Crystalline Form 1], the “electrostatic character of bulk product” value in series [2] (listed as CI-1027 hydrate Crystalline Form 1) is listed as “less electrostatic than the amorphous form”; in series [2] (listed as Crystal Form 1), “less capable of retaining an electrostatic charge”. Moreover, the “Physical Properties of Solid (hygroscopic status)” value (shortened to “Physical Properties of Solid”) in series [3] was “None to Slight Hygroscopic”.
Take `CC(C)(CCCCOCCCCC(C)(C)C(=O)[O-])C(=O)[O-].[Na+].[Na+]` [di-sodium]: in series [3], the “Physical Form” value is “Solid” and the “Physical Properties of Solid” value is reported as “Very Hygroscopic”.
As to `CC(C)(CCCCOCCCCC(C)(C)C(=O)[O-])C(=O)[O-].[Ca+2]` [CD-3221A], in series [1], the “Bulk Density Loose” value is 0.372 g/mL and the “Bulk Density Tapped” value is reported as 0.521 g/mL.
On to `CC(C)(CCCCOCCCCC(C)(C)C(=O)[O-])C(=O)[O-].[Ca+2]` [CD-3111], for which, in series [1], the “Bulk Density Loose” value was 0.218 g/mL and the “Bulk Density Tapped” value came to 0.264 g/mL.
For `CC(C)(CCCCOCCCCC(C)(C)C(=O)[O-])C(=O)[O-].[K+].[K+]` [di-potassium], in series [3], the “Physical Form” value is “Solid” and the “Physical Properties of Solid” value is listed as “Very Hygroscopic”.
With `CC(C)(CCCCOCCCCC(C)(C)C(=O)[O-])C(=O)[O-].[Ca+2]` [listing 2 of 2 here], the “bulk density, average” value in series [1] (amorphous form) is on record as “about 0.3 gm/mL”.
In the case of `CC(C)(CCCCOCCCCC(C)(C)C(=O)[O-])C(=O)[O-].[Ca+2]` [CI-1027, 6-(5-carboxy-5-methyl-hexyloxy)-2,2-dimethylhexanoic acid monocalcium salt (1:1)], the “14C peaks found in hepatocyte incubation” value in the series with rat hepatocytes is “two major ^14C peaks, intact drug, and a glucuronide conjugate”; in the series with monkey hepatocytes, “two major ^14C peaks, intact drug, and a glucuronide conjugate”; in the series with dog hepatocytes, “two major ^14C peaks, intact drug, and a glucuronide conjugate”. The absorption result in [4], in series [9] and in [10] was “rapidly absorbed” each time. The results for the half-life in [4] (setting [13]), in [9] (setting [13]) and in [10] (setting [13]) were 5 to 7 h, 17 to 31 h and 9 to 15 h, respectively. For the same compound, the “In vitro binding to plasma proteins” value in the series on plasma proteins was “species and concentration dependent”. Besides, the primary binding protein result in the series with plasma proteins is given as “Albumin”. Moreover, the “Mean recovery in bile” value in series [5] (Fistula Rat) stood at 87.5 percent ^14C dose; in series [6] (Fistula Monkey), 42.0 percent ^14C dose. Also, the “Mean recovery in feces” value is reported as 0.72 percent ^14C dose in [5] (Fistula Rat), 56.9 percent ^14C dose in [5] (Intact Rat), 3.82 percent ^14C dose in series [6] (Fistula Monkey) and 17.3 percent ^14C dose in series [6] (Monkey (intact)). Besides, the “Mean recovery in urine” value in series [5] (Fistula Rat) is reported as 10.5 percent ^14C dose; in series [5] (Intact Rat), 37.0 percent ^14C dose; in series [6] (Fistula Monkey) it was 62.2 percent ^14C dose; in series [6] (Monkey (intact)), 78.1 percent ^14C dose. Besides, the Mean total recovery amounted to 98.7 percent ^14C dose in [5] (Fistula Rat), 93.9 percent ^14C dose in [5] (Intact Rat), 108 percent ^14C dose in [6] (Fistula Monkey) and 95.4 percent ^14C dose in series [6] (Monkey (intact)). In addition, in series [7], the “metabolite detected in bile and urine” value is listed as “acyl-glucuronide is detected”. The “share of plasma radioactivity that was unchanged drug” value in [7] is recorded as approximately 100%. Further, in series [8], the Oral bioavailability entry was “appeared to be high”. Moreover, the enterohepatic recirculation result in [8] was “seemed to undergo enterohepatic recirculation”. In series [8], the linearity of pharmacokinetics result is recorded as “nonlinear”. Further, the “decrease in plasma Lp(a) compared to mice dosed with vehicle alone” value is listed as −15% in [11] (female mice, 3 mg/kg/day oral gavage, after 1 week); −41% in series [11] (female mice, 10 mg/kg/day oral gavage, after 1 week); −54% in [11] (female mice, 30 mg/kg/day oral gavage, after 1 week); −61% in [11] (female mice, 100 mg/kg/day oral gavage, after 1 week). Also, the “HDL cholesterol (lipoprotein profiles by HPLC)” value in series [11] (female mice, after 1 week) is reported as “remained unchanged”. Moreover, the “LDL cholesterol (lipoprotein profiles by HPLC)” value in series [11] (female mice, after 1 week) is “significant decreases”. In addition, the “decrease in plasma apoB” value in series [11] (female mice, after 1 week) is listed as “up to 30%”. Moreover, the “maximum decrease in total plasma cholesterol” value in [11] (female mice, after 1 week) is reported as 32%. Also, in series [11] (with treatment, control value 0.39), the “ratio of HDL cholesterol to VLDL+LDL cholesterol” value was 0.65. Also, the “Lp(a) lowering” value in [12] (3 mg/kg/day) is listed as −9%; in series [12] (10 mg/kg/day) it was −23%; in [12] (30 mg/kg/day), −64%; in series [12] (100 mg/kg/day), −68%; in series [12] (300 mg/kg/day), −87%. Moreover, the HDL cholesterol entry in series [12] (3-300 mg/kg) is recorded as “decreased”. Further, the total plasma cholesterol result in series [12] (3-300 mg/kg) is listed as “decreased”.
In the case of `CC(C)(CCCCOCCCCC(C)(C)C(=O)[O-])C(=O)[O-].C[N+](C)(C)CCO.C[N+](C)(C)CCO` [di-choline], the “Physical Form” value in series [3] was “Oil”.
On to `CC(C)(CCCCOCCCCC(C)(C)C(=O)[O-])C(=O)[O-].[Ca+2]` [CD-3102], for which, in series [1], the “Bulk Density Loose” value was found to be 0.215 g/mL and the “Bulk Density Tapped” value turned out to be 0.270 g/mL.
The corresponding values for `CC(C)(CCCCOCCCCC(C)(C)C(=O)[O-])C(=O)[O-].[Ca+2]` [CD-3055] are 0.280 g/mL and 0.315 g/mL.
In the case of `CC(C)(CCCCOCCCCC(C)(C)C(=O)O)C(=O)[O-].C[N+](C)(C)CCO` [mono-choline], the “Physical Form” value in series [3] is listed as “Oil”.
